Reference: patent US6936584B1, “Mixed amylin activity compounds” (Amylin Pharmaceuticals, Inc., priority 1998, dated 2005)
Entries after “also recorded” stand apart in the source; their conditions may differ. Square brackets hold non-standard residues; d marks the D form. Ends that are not written are not given here. * marks the point of attachment. 125I = iodine-125 radiolabel, [125I]*; Aib = CC(C)(N)C(=O)O; For = O=C*

Tests used:
calcitonin receptors [1] = molecular target: T1, calcitonin receptors (Homo sapiens, UniProt P30988); test: Binding to membranes from T47D cells (calcitonin receptors), displacement of [125I]salmon calcitonin; set-up: Membranes were prepared from confluent cultures of T47D cells; host or cells: T47D human breast carcinoma cells; conditions: for affinity for calcitonin receptors compared with amylin receptors: calcitonin (T47D) versus amylin (nucleus accumbens) receptors; for IC50: T47D membranes, mean ± SEM (n), read-out: Receptor IC50 in nM [mean ± SEM (n)] Calcitonin
T1 sequence (P30988 25-474): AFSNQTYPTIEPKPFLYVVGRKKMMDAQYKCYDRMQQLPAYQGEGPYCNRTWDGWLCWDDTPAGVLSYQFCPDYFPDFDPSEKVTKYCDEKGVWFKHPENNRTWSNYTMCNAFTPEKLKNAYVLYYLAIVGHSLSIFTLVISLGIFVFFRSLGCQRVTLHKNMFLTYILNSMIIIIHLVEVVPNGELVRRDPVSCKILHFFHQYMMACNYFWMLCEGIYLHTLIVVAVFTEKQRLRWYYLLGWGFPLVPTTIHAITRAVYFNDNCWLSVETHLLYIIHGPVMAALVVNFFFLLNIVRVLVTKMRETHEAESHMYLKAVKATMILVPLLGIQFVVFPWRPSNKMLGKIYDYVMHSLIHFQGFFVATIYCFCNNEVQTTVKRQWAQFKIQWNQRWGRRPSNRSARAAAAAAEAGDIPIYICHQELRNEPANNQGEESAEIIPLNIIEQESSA

[2] = system: effects of rat amylin on plasma levels of glucose, lactate and calcium; test: Effect on plasma glucose, lactate, calcium and mean arterial pressure in the presence of amylin, anesthetized rats; format: in vivo
isolated soleus muscle = conditions: insulin 7.1 nM
gastric emptying in rats = test: Phenol red gastric emptying assay in conscious rats; conditions: for inhibition of gastric emptying: conscious rat model, adrenomedullin at highest doses (100 μg); for ED50 inhibiting gastric emptying (FIG. 7): conscious rats; for dose at which suppression of gastric emptying was complete / ED50 for inhibition of gastric emptying: subcutaneous; for ED50 for inhibition of gastric emptying: normal (Harlan Sprague Dawley) rats, ±0.19 log units
calcitonin receptors [3] = molecular target: T1, calcitonin receptors; test: Adenyl cyclase stimulation, cyclic AMP accumulation in MCF7-7 cells; format: cell-based
[4] = Effect on plasma glucose, lactate and calcium levels in anesthetized rats; format: in vivo, rat; conditions: 100 μg subcutaneous
amylin receptors = molecular target: T2, amylin receptors (Rattus norvegicus, UniProt P32214); test: Binding to rat nucleus accumbens membranes (amylin receptors), displacement of 125I-BH-rat amylin; conditions: read-out: Receptor IC50 in nM [mean ± SEM (n)] Amylin
T2 sequence (P32214 25-516): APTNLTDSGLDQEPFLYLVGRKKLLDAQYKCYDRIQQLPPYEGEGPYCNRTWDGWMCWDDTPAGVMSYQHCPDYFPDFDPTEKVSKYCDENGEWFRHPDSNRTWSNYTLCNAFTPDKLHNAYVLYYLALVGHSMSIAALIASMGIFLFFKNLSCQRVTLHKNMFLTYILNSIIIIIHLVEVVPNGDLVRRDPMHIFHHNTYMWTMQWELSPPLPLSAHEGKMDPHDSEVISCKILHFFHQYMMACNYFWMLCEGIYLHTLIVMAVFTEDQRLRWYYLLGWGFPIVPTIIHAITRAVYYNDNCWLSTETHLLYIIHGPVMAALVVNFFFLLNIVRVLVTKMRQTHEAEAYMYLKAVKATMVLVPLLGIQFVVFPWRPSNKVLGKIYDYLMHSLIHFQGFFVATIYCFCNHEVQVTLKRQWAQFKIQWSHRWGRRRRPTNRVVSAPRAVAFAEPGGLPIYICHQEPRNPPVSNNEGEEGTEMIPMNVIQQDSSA

CGRP receptors = molecular target: T3, CGRP receptors (Homo sapiens, UniProt O60894+Q16602); test: Binding to membranes from SK-N-MC cells (CGRP receptors), displacement of [125I]human-CGRP; conditions: read-out: Receptor IC50 in nM [mean ± SEM (n)] CGRP
T3 construct: SK-N-MC cells (ATCC No. HTB-10) were homogenized in 50 mM Hepes buffer; host or cells: SK-N-MC human neuroblastoma cells
T3 sequence (Q16602 23-461): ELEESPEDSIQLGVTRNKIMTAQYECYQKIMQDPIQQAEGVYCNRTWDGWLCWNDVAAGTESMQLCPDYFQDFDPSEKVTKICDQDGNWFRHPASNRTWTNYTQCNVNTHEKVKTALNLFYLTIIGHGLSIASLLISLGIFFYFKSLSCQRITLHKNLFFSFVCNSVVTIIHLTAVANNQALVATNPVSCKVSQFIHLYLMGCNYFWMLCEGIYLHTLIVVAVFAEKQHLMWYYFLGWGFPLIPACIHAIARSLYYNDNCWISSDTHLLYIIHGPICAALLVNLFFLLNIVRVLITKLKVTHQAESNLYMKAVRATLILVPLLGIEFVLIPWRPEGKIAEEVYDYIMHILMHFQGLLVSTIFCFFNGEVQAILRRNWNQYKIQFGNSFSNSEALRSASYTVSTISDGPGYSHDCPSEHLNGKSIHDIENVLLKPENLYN
T3 sequence (O60894 27-148 partner): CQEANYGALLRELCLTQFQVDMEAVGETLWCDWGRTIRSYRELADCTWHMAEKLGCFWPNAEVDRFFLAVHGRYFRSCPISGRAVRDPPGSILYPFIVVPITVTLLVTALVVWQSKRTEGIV

[5] = molecular target: human calcitonin receptors (T47D and MCF7-7 breast carcinoma cells) (human) (UniProt P30988); test: cell-based or functional assay
[6] = molecular target: T4, human calcitonin receptors (T47D and MCF7-7 breast carcinoma cells) (human, UniProt P30988 25-474); test: radioligand Kd used to derive Ki, T47D cell membranes
T4 construct: whole, on cells; also called calcitonin (T47D) receptors
T4 sequence (looked up): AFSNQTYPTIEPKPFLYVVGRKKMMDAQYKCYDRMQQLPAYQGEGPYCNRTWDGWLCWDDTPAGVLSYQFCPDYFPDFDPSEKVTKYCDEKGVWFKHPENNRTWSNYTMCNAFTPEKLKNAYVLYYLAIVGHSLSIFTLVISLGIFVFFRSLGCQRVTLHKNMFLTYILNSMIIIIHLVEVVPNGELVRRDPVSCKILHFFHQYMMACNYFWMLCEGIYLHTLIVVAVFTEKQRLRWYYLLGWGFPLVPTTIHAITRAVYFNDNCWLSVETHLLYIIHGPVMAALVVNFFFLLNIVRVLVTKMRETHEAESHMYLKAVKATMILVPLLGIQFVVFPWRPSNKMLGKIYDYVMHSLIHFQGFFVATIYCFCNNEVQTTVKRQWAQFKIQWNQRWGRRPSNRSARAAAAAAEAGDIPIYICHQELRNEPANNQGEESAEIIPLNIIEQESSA

[7] = molecular target: T4, human calcitonin receptors (T47D and …); test: radioligand competition, [125I]salmon calcitonin on T47D cell membranes
[8] = molecular target: T5, human CGRP receptors (SK-N-MC neuroblastoma cells) (human, UniProt Q16602 23-461; O60894 27-148); test: radioligand competition, SK-N-MC membranes against rat nucleus accumbens membranes
T5 construct: whole, on cells; also called CGRP (SK-N-MC) receptors
T5 sequence (Q16602 23-461, chain 1 of 2): as the sequence (Q16602 23-461) above
T5 sequence (O60894 27-148, chain 2 of 2): as the sequence (O60894 27-148 partner) above

[9] = molecular target: T6, amylin receptors of rat nucleus accumbens membranes (rat); test: radioligand competition, 125I-BH-rat amylin on rat nucleus accumbens membranes
T6 chain 1: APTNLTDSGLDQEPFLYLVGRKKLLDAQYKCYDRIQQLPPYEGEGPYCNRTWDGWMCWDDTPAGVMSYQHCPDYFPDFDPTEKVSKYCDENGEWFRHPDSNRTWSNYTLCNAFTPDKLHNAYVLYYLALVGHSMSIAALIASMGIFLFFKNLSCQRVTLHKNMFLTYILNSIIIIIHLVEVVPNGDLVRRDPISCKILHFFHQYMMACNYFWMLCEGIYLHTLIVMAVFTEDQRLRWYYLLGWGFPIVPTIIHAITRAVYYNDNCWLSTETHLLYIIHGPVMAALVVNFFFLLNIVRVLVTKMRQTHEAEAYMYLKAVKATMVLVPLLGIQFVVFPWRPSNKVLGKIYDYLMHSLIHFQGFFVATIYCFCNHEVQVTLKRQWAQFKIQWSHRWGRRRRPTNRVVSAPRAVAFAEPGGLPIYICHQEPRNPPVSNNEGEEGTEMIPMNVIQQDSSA
T6 chain 2: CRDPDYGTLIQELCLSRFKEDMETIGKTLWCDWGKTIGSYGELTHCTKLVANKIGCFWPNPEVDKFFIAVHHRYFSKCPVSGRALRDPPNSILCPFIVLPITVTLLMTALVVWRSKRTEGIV

[10] = molecular target: T4, human calcitonin receptors (T47D and …); test: cell-based or functional assay
[11] = intravenous preinfusion of test compound, then rat amylin 50 μg bolus + 50 μg/hour, versus saline preinfusion

4-methylpentanoyl-Ser-Thr-Ala-Val-Leu-Aib-Lys(For)-Leu-Ser-Gln-Glu-Leu-Aib-Lys(For)-Leu-Gln-Thr-Tyr-Pro-Arg-Thr-Asn-Thr-Gly-Ser-Gly-Thr-Pro [Compound 2]
affinity for calcitonin receptors compared with amylin receptors (calcitonin receptors [1]): greater affinity for calcitonin receptors than for amylin receptors
plasma calcium levels ([2]; after infusion of test compound, with subsequent amylin infusion): A fall in plasma calcium levels
increase in plasma glucose after amylin administration [2, 11]: smaller increases
increase in plasma lactate after amylin administration [2, 11]: smaller increases
reversal of the blood pressure lowering effect of amylin (mean arterial pressure) ([2]; intravenous preinfusion of test compound, then rat amylin infusion): lack of ability of these compounds to reverse the blood pressure lowering effect of amylin
amylin antagonist activity, reversal of the effect of amylin on insulin-stimulated incorporation of glucose into glycogen (isolated soleus muscle; amylin 100 nM, test compound 1 μM): reversed
amylin agonist activity, inhibition of insulin-stimulated incorporation of glucose into glycogen (isolated soleus muscle; test compound 100 nM): no discernable amylin agonist activity; also recorded: neither Compound 1 (100 nM) nor Compound 2 (100 nM) affected the response to insulin
inhibition of gastric emptying (gastric emptying in rats): behaved as potent amylin and calcitonin agonists in inhibition of gastric emptying
fold less potent than human calcitonin in stimulating adenyl cyclase activity (calcitonin receptors [3]): 3.5 fold
functional activity at calcitonin receptors (calcitonin receptors [3]): partial agonist activity
increase in cyclic AMP as percent of the increase produced by human calcitonin (calcitonin receptors [3]): approximately 20%
plasma calcium concentration [4]: caused a fall in plasma calcium concentration
plasma glucose [4]: neither Compound 1 nor Compound 2 increased
plasma lactate [4]: neither Compound 1 nor Compound 2 increased

Adrenomedullin: observed to behave as a CGRP agonist but not as an amylin or calcitonin agonist (YRQSMNNFQGLRSFGCRFGTCTVQKLAHQIYQFTDKDKDNVAPRSKISPQGY; ends and bridges not checked; cysteine pairing not given here; UniProt P35318 95-146, looked up)
inhibition of gastric emptying (gastric emptying in rats): does not inhibit gastric emptying

LSTAVLGRLSQELHRLQTYPRTNTGSNTY [Compound 6]
IC50 (calcitonin receptors [1]): 0.56 nM
affinity for calcitonin receptors compared with amylin receptors (calcitonin receptors [1]): greater affinity for calcitonin receptors than for amylin receptors
IC50 (amylin receptors): 18.6 ± 5.3 nM
IC50 (CGRP receptors): > 10000 nM
fold less potent than human calcitonin in stimulating adenyl cyclase activity (calcitonin receptors [3]): 80 fold
EC50 (calcitonin receptors [3]; read-out: EC50 cyclic AMP accumulation / adenylyl cyclase activity): 34 nM

LSTSVLGRLSQELHRLQTYPRTNTGSNTY [Compound 3]
IC50 (calcitonin receptors [1]): 1.45 nM
affinity for calcitonin receptors compared with amylin receptors (calcitonin receptors [1]): greater affinity for calcitonin receptors than for amylin receptors
IC50 (amylin receptors): 37 ± 4.6 nM
IC50 (CGRP receptors): > 10000 nM

Leu-Ser-Thr-Ala-Val-Leu-Gly-Arg-Leu-Ser-Gln-Glu-Leu-His-Arg-Leu-Gln-Thr-Tyr-Pro-Arg-Thr-Asn-Thr-Gly-Ser-Asn-Thr-Tyr [Compound 4]
fold less potent than human calcitonin in stimulating adenyl cyclase activity (calcitonin receptors [3]): 7 fold

Salmon calcitonin
inhibition of gastric emptying (gastric emptying in rats): dose-dependently inhibit gastric emptying
ED50 inhibiting gastric emptying (FIG. 7) (gastric emptying in rats): 0.12 μg/rat

human amylin (from UniProt P10997 34-70) (ligand)
fold less potent than calcitonin in stimulating adenyl cyclase activity, MCF7-7 cells [5]: 5 fold
fold less potent than calcitonin in stimulating adenyl cyclase activity, T47D cells [5]: 7 fold

rat amylin: Synthetic rat amylin (Bachem, Torrance, Calif.), positive control
dose at which suppression of gastric emptying was complete (gastric emptying in rats; diabetic rats): 10 µg
ED50 for inhibition of gastric emptying (gastric emptying in rats; 5 minutes before gavage): 0.43 µg
ED50 for inhibition of gastric emptying (gastric emptying in rats): 0.60 nmol/kg
dose at which suppression of gastric emptying was complete (gastric emptying in rats; normal HSD rats): 1 µg
plasma calcium concentration [4]: fall
plasma glucose [4]: increase
plasma lactate [4]: increase

rat calcitonin
inhibition of gastric emptying (gastric emptying in rats): dose-dependently inhibit gastric emptying
ED50 inhibiting gastric emptying (FIG. 7) (gastric emptying in rats): 0.41 μg/rat

B1: [^125I]salmon calcitonin (ligand, UniProt P01263 83-114, looked up)
peptide: CSNLSTCVLGKLSQELHKLQTY(125I)PRTNTGSGTP
modifications: ends and bridges not checked
notes: mature; also called labeled salmon calcitonin
Kd [6]: 0.019 nM

B2: Compound 3 (peptide)
peptide: XLSTSVLGRLSQELHRLQTYPRTNTGSNTY
modifications: N-terminal acetyl (Ac-Leu)
IC50 [7]: 1.45 nM
fold lower affinity than for the amylin receptors [8]: ≥ 300 fold
IC50 [9]: 37 nM

B3: Compound 6 (peptide)
peptide: XLSTAVLGRLSQELHRLQTYPRTNTGSNTY
modifications: N-terminal acetyl (Ac-Leu)
IC50 [7]: 0.56 nM
EC50 of adenylyl cyclase stimulation, MCF7-7 cells [10]: 34 nM
fold lower potency than human calcitonin, MCF7-7 cells [10]: 80 fold
fold lower affinity than for the amylin receptors [8]: ≥ 300 fold
IC50 [9]: 18.6 nM

B4: Compound 8 (peptide)
peptide: VL[Aib]K(For)LSQEL[Aib]K(For)LQTYPRTNTGSNTY-NH2
IC50 [7]: 93 nM
